According to the supplement of paper PMC10307832:

Assays:
Experiment in all cases: relative viability (nuclei count vs DMSO), 5 days (fraction); higher = more cells survive
A-427 = tested on: A-427
Summary of the method: (§1)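 Relative viability is defined as nuclei in treated wells over nuclei in vehicle wells. Duplicate plates were run and medians reported. Lung cancer cell lines in 1536-well plates were dosed by pin tool one day after seeding, with one drug or with a fixed anchor-drug dose plus five library-drug doses (not always all listed) in √10 steps, and nuclei were counted after 5 days.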

ABC-1 = tested on: ABC-1
Summary of the method: as §1

CAL-12T = tested on: CAL-12T
Summary of the method: as §1

H3255 = tested on: H3255
Summary of the method: as §1

LCLC-97TM1 = tested on: LCLC-97TM1
Summary of the method: as §1

LK-2 = tested on: LK-2
Summary of the method: as §1

NCI-H1355 = tested on: NCI-H1355
Summary of the method: as §1

NCI-H1395 = tested on: NCI-H1395
Summary of the method: as §1

NCI-H1651 = tested on: NCI-H1651
Summary of the method: as §1

NCI-H1666 = tested on: NCI-H1666
Summary of the method: as §1

NCI-H1792 = tested on: NCI-H1792
Summary of the method: as §1

NCI-H1915 = tested on: NCI-H1915
Summary of the method: as §1

NCI-H2085 = tested on: NCI-H2085
Summary of the method: as §1

NCI-H2087 = tested on: NCI-H2087
Summary of the method: as §1

NCI-H2228 = tested on: NCI-H2228
Summary of the method: as §1

NCI-H322M = tested on: NCI-H322M
Summary of the method: as §1

NCI-H358 = tested on: NCI-H358
Summary of the method: as §1

NCI-H661 = tested on: NCI-H661
Summary of the method: as §1

NCI-H838 = tested on: NCI-H838
Summary of the method: as §1

PC-14 = tested on: PC-14
Summary of the method: as §1

PC-3 [JPC-3] = tested on: PC-3 [JPC-3]
Summary of the method: as §1

SK-MES-1 = tested on: SK-MES-1
Summary of the method: as §1

UMC-11 = tested on: UMC-11
Summary of the method: as §1

Cc1cnc(-c2cnc(NCCNc3ccc(C#N)cn3)nc2-c2ccc(Cl)cc2Cl)[nH]1 + COc1cccc2cc(-c3nc([C@H]4CC[C@H](C(=O)O)CC4)n4ncnc(N)c34)[nH]c12 [OSI-027] (partner 0.5 µM)
relative viability (A-427; first compound 0.08 µM): 0.547 | relative viability (A-427; first compound 0.253 µM): 0.41 | relative viability (A-427; first compound 0.8 µM): 0.608 | relative viability (A-427; first compound 2.53 µM): 0.653 | relative viability (ABC-1; first compound 0.08 µM): 0.751 | relative viability (ABC-1; first compound 0.253 µM): 0.411 | relative viability (ABC-1; first compound 0.8 µM): 0.553 | relative viability (ABC-1; first compound 2.53 µM): 0.649 | relative viability (CAL-12T; first compound 0.08 µM): 0.774 | relative viability (CAL-12T; first compound 0.253 µM): 0.59 | relative viability (CAL-12T; first compound 0.8 µM): 0.565 | relative viability (CAL-12T; first compound 2.53 µM): 0.571 | relative viability (H3255; first compound 0.08 µM): 0.745 | relative viability (H3255; first compound 0.253 µM): 0.535 | relative viability (H3255; first compound 0.8 µM): 0.616 | relative viability (H3255; first compound 2.53 µM): 0.592 | relative viability (LCLC-97TM1; first compound 0.08 µM): 0.648 | relative viability (LCLC-97TM1; first compound 0.8 µM): 0.646 | relative viability (LCLC-97TM1; first compound 2.53 µM): 0.688 | relative viability (LK-2; first compound 0.08 µM): 0.204 | relative viability (LK-2; first compound 0.253 µM): 0.248 | relative viability (LK-2; first compound 0.8 µM): 0.231 | relative viability (LK-2; first compound 2.53 µM): 0.318 | relative viability (NCI-H1355; first compound 0.08 µM): 0.404 | relative viability (NCI-H1355; first compound 0.253 µM): 0.434 | relative viability (NCI-H1355; first compound 0.8 µM): 0.395 | relative viability (NCI-H1355; first compound 2.53 µM): 0.439 | relative viability (NCI-H1395; first compound 0.08 µM): 0.828 | relative viability (NCI-H1395; first compound 0.253 µM): 0.525 | relative viability (NCI-H1395; first compound 0.8 µM): 0.602 | relative viability (NCI-H1395; first compound 2.53 µM): 0.67 | relative viability (NCI-H1651; first compound 0.08 µM): 0.797 | relative viability (NCI-H1651; first compound 0.253 µM): 0.589 | relative viability (NCI-H1651; first compound 0.8 µM): 0.71 | relative viability (NCI-H1651; first compound 2.53 µM): 0.801 | relative viability (NCI-H1666; first compound 0.08 µM): 0.828 | relative viability (NCI-H1666; first compound 0.253 µM): 0.77 | relative viability (NCI-H1666; first compound 0.8 µM): 0.894 | relative viability (NCI-H1666; first compound 2.53 µM): 0.903 | relative viability (NCI-H1792; first compound 0.08 µM): 0.866 | relative viability (NCI-H1792; first compound 0.253 µM): 0.715 | relative viability (NCI-H1792; first compound 0.8 µM): 0.618 | relative viability (NCI-H1792; first compound 2.53 µM): 0.666 | relative viability (NCI-H1915; first compound 0.08 µM): 0.715 | relative viability (NCI-H1915; first compound 0.253 µM): 0.586 | relative viability (NCI-H1915; first compound 0.8 µM): 0.658 | relative viability (NCI-H1915; first compound 2.53 µM): 0.812 | relative viability (NCI-H2085; first compound 0.08 µM): 0.812 | relative viability (NCI-H2085; first compound 0.253 µM): 0.786 | relative viability (NCI-H2085; first compound 0.8 µM): 0.677 | relative viability (NCI-H2085; first compound 2.53 µM): 0.756 | relative viability (NCI-H2087; first compound 0.08 µM): 0.48 | relative viability (NCI-H2087; first compound 0.253 µM): 0.467 | relative viability (NCI-H2087; first compound 0.8 µM): 0.507 | relative viability (NCI-H2087; first compound 2.53 µM): 0.44 | relative viability (NCI-H2228; first compound 0.08 µM): 0.779 | relative viability (NCI-H2228; first compound 0.253 µM): 0.807 | relative viability (NCI-H2228; first compound 0.8 µM): 0.569 | relative viability (NCI-H2228; first compound 2.53 µM): 0.469 | relative viability (NCI-H322M; first compound 0.08 µM): 0.641 | relative viability (NCI-H322M; first compound 0.253 µM): 0.658 | relative viability (NCI-H322M; first compound 0.8 µM): 0.45 | relative viability (NCI-H322M; first compound 2.53 µM): 1.3 | relative viability (NCI-H358; first compound 0.08 µM): 0.843 | relative viability (NCI-H358; first compound 0.253 µM): 0.647 | relative viability (NCI-H358; first compound 0.8 µM): 0.771 | relative viability (NCI-H358; first compound 2.53 µM): 0.627 | relative viability (NCI-H661; first compound 0.08 µM): 0.77 | relative viability (NCI-H661; first compound 0.253 µM): 0.667 | relative viability (NCI-H661; first compound 0.8 µM): 0.743 | relative viability (NCI-H661; first compound 2.53 µM): 0.802 | relative viability (NCI-H838; first compound 0.08 µM): 0.433 | relative viability (NCI-H838; first compound 0.253 µM): 0.424 | relative viability (NCI-H838; first compound 0.8 µM): 0.46 | relative viability (NCI-H838; first compound 2.53 µM): 0.846 | relative viability (PC-14; first compound 0.08 µM): 1.21 | relative viability (PC-14; first compound 0.253 µM): 0.673 | relative viability (PC-14; first compound 0.8 µM): 0.76 | relative viability (PC-14; first compound 2.53 µM): 0.643 | relative viability (PC-3 [JPC-3]; first compound 0.08 µM): 0.831 | relative viability (PC-3 [JPC-3]; first compound 0.253 µM): 0.757 | relative viability (PC-3 [JPC-3]; first compound 0.8 µM): 0.692 | relative viability (PC-3 [JPC-3]; first compound 2.53 µM): 0.742 | relative viability (SK-MES-1; first compound 0.08 µM): 0.738 | relative viability (SK-MES-1; first compound 0.253 µM): 0.594 | relative viability (SK-MES-1; first compound 0.8 µM): 0.528 | relative viability (SK-MES-1; first compound 2.53 µM): 0.777 | relative viability (UMC-11; first compound 0.08 µM): 0.594 | relative viability (UMC-11; first compound 0.253 µM): 0.477 | relative viability (UMC-11; first compound 0.8 µM): 0.591
